Common to all, as to format: cell-based
For data set [1], the system named is diffuse large B-cell lymphoma cell line (A3/Kawakami). Nature of the data set: Western blot of cleaved PARP, γ-H2A.X and tubulin after drug treatment, diffuse large B-cell lymphoma cell line A3/Kawakami. The following applies: compared with etoposide and doxorubicin. As to the method:
FIGS. 13A to 13B. […] FIG. 13A illustrates a Western blot gel as described in FIG. 11A. FIG. 13B illustrates graphs of the relative band intensity taken from the Western blot as described in FIG. 11B.
(§1) In FIGS. 12 and 13, similar experiments were performed to compare the cytotoxicity of aclarubicin to etoposide and doxorubicin in additional lymphoma cell lines. In FIG. 12, the compounds cytotoxicity and side effects were assessed in the Hodgkin's lymphoma cell line, L-428. In FIG. 13, the compounds cytotoxicity and side effects were assessed in the diffuse large B-cell lymphoma cell line, A3/KAW.

Data set [2] deals with Hodgkin's lymphoma cell line (L-428). Briefly: Western blot of cleaved PARP, γ-H2A.X and tubulin after drug treatment, Hodgkin's lymphoma cell line L-428. As for the experimental part:
FIGS. 12A to 12B. […] FIG. 12A illustrates a Western blot gel as described in FIG. 11A. FIG. 12B illustrates graphs of the relative band intensity taken from the Western blot as described in FIG. 11B.
as §1

In data set [3] the test system is Hodgkin's lymphoma cell line (L-1236). Briefly: Western blot of cleaved PARP, γ-H2A.X and tubulin after drug treatment, Hodgkin's lymphoma cell line L-1236. As for the experimental part: FIGS. 11A to 11B. […] FIG. 11A illustrates a Western blot gel depicting marker expression following a 72 hour treatment with aclarubicin, etoposide, and doxorubicin. The markers are listed on the y-axis. The specific agents and amounts were added according to the labeling on the x-axis, which is fully described in the figure legend. FIG. 11B illustrates graphs of the relative band intensity taken from the Western blot and plotted according to drug concentration. The band intensity of PARP was used as an indicator of agent cytotoxicity. The band intensity of γ-H2A.X was used as an indicator of DNA damage (side effect). The band intensity of tubulin was used as a control.
(§2) FIG. 11A is a Western blot gel assessing expression of the markers listed on the y-axis. The specific cancer therapeutics and the amounts used are indicated by the numbers along the x-axis and the corresponding figure legend. In this Example, aclarubicin's cytotoxicity on lymphoma cells was assessed by determining the amount of cleaved PARP, which was assessed as band intensity (FIG. 11B) from the Western blot (FIG. 11A). In this Example, aclarubicin's corresponding DNA damage was assessed by measuring the amount of γ-H2A.X, which was assessed as band intensity (FIG. 11B) from the Western blot (FIG. 11A).

In a further data set the test system is lymphoma cells. Briefly: Western blot of cleaved PARP and γ-H2A.X, summary over the three lymphoma cell lines (FIGS. 11-13). As to the method:
as §2, §1

The mark [4] stands for this setting: L-428, 72 hour treatment, compared with etoposide and doxorubicin.
Where [5] appears, read: L-1236, 72 hour treatment, 100 nM to 5.0 μM, compared with etoposide and doxorubicin.

Entries after “also recorded” stand apart in the source; their conditions may differ.

Regarding `CC[C@@]1(O)C[C@H](O[C@H]2C[C@H](N(C)C)[C@H](O[C@H]3C[C@H](O)[C@H](O[C@H]4CCC(=O)[C@H](C)O4)[C@H](C)O3)[C@H](C)O2)c2c(cc3c(c2O)C(=O)c2c(O)cccc2C3=O)[C@H]1C(=O)OC` [aclarubicin], the “cytotoxicity and side effects (relative band intensities)” value in data set [1] (A3/KAW) is “best combination of anti-neoplastic activity while having fewer harmful side effects”; in data set [2] (L-428, compared with etoposide and doxorubicin) it was “best combination of anti-neoplastic activity while having fewer harmful side effects”. In addition, the “DNA damage (band intensity of γ-H2A.X, side effect)” value is recorded as “minimizing DNA damage” in data set [1] (A3/Kawakami, 72 hour treatment); “minimizing DNA damage” in data set [2] (setting [4]); “minimizing DNA damage” in data set [3] (setting [5]). Further, the “apoptosis / cytotoxicity (band intensity of PARP)” value in data set [1] (A3/Kawakami, 72 hour treatment) is “maximizes apoptosis”; in data set [2] (setting [4]), “maximizes apoptosis”; in data set [3] (setting [5]), “maximizes apoptosis”. The “relative band intensity of PARP/tubulin, PARP/γ-H2A.X and γ-H2A.X/Tubulin” value in data set [3] (L-1236, compared with etoposide and doxorubicin) was “best combination of anti-neoplastic activity while having fewer harmful side effects”. In the data set with lymphoma cells (FIGS. 11-13, compared with doxorubicin or etoposide), the “DNA damage as measured by γ-H2A.X; side effect profile” value was “much less DNA damage; also recorded: much more favorable side effect profile than doxorubicin”. For the same compound, the “killing of lymphoma cells as measured by cleaved PARP; anti-neoplastic activity” value in the data set on lymphoma cells (FIGS. 11-13, three lymphoma cell lines) is “efficiently kills lymphoma cells; also recorded: more anti-neoplastic activity than etoposide”.

Source of the values: patent US11744843B2, “Identification and treatment of T-cell epitopes of short H2A oncohistones” (Fred Hutchinson Cancer Research Center, priority 2020, dated 2023).
